# Measurements as given in the supplement of paper PMC11061612.
# Key:
# [1] = test system: EW-11 (Ewing's Sarcoma); test: Bliss excess, mean over the matrix (fraction); higher = more synergy
# Method in brief: (§1)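 Bliss excess equals the observed combination effect minus the expected value EA + EB − EA·EB, where EA and EB are the effects of each agent alone. Combination Emax is the second-highest inhibition within the matrix. Inhibition was scaled from CellTiter-Glo 2.0 luminescence, with 0 set by vehicle wells and 1 by blank wells, after 72 hours of two-drug dosing of cells plated in 1536-well plates.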
# [2] = test system: ESS-1 (Other Solid Carcinomas); test: as above
# Method in brief: as §1
# [3] = test system: TGBC1TKB (Biliary Tract Carcinoma); test: as above
# Method in brief: as §1
# [4] = test system: HH (T-Cell Non-Hodgkin's Lymphoma); test: as above
# Method in brief: as §1
# [5] = test system: WSU-NHL (B-Cell Non-Hodgkin's Lymphoma); test: as above
# Method in brief: as §1
# [6] = test system: OVCAR-5 (Ovarian Carcinoma); test: as above
# Method in brief: as §1
# [7] = test system: HuCCT1 (Biliary Tract Carcinoma); test: as above
# Method in brief: as §1
# [8] = test system: LNZTA3WT4 (Low Grade Glioma); test: as above
# Method in brief: as §1
# [9] = test system: NCI-H524 (Small Cell Lung Carcinoma); test: as above
# Method in brief: as §1
# [10] = test system: A673 (Ewing's Sarcoma); test: as above
# Method in brief: as §1
# [11] = test system: YAPC (Pancreatic Carcinoma); test: as above
# Method in brief: as §1
# [12] = test system: MPP-89 (Mesothelioma); test: as above
# Method in brief: as §1
# [13] = test system: SNU-16 (Gastric Carcinoma); test: as above
# Method in brief: as §1
# [14] = test system: KS-1 (Glioblastoma); test: as above
# Method in brief: as §1
# [15] = test system: LS-123 (Colorectal Carcinoma); test: as above
# Method in brief: as §1
# [16] = test system: GAMG (Glioblastoma); test: as above
# Method in brief: as §1
# [17] = test system: SW1710 (Bladder Carcinoma); test: as above
# Method in brief: as §1
# [18] = test system: LOXIMVI (Melanoma); test: as above
# Method in brief: as §1
# [19] = test system: CAL-72 (Osteosarcoma); test: as above
# Method in brief: as §1
# [20] = test system: BE-13 (T-Lymphoblastic Leukemia); test: as above
# Method in brief: as §1
# [21] = test system: SAS (Oral Cavity Carcinoma); test: as above
# Method in brief: as §1
# [22] = test system: SNU-449 (Hepatocellular Carcinoma); test: as above
# Method in brief: as §1
# [23] = test system: KYAE-1 (Esophageal Adenocarcinoma); test: as above
# Method in brief: as §1
# [24] = test system: EW-11 (Ewing's Sarcoma); test: combination Emax (second highest fraction inhibited in the dose matrix, 72 h); higher = more inhibition; extreme values may be limits of the assay
# Method in brief: as §1
# [25] = test system: ESS-1 (Other Solid Carcinomas); test: as above
# Method in brief: as §1
# [26] = test system: TGBC1TKB (Biliary Tract Carcinoma); test: as above
# Method in brief: as §1
# [27] = test system: HH (T-Cell Non-Hodgkin's Lymphoma); test: as above
# Method in brief: as §1
# [28] = test system: WSU-NHL (B-Cell Non-Hodgkin's Lymphoma); test: as above
# Method in brief: as §1
# [29] = test system: OVCAR-5 (Ovarian Carcinoma); test: as above
# Method in brief: as §1
# [30] = test system: HuCCT1 (Biliary Tract Carcinoma); test: as above
# Method in brief: as §1
# [31] = test system: LNZTA3WT4 (Low Grade Glioma); test: as above
# Method in brief: as §1
# [32] = test system: NCI-H524 (Small Cell Lung Carcinoma); test: as above
# Method in brief: as §1
# [33] = test system: A673 (Ewing's Sarcoma); test: as above
# Method in brief: as §1
# [34] = test system: YAPC (Pancreatic Carcinoma); test: as above
# Method in brief: as §1
# [35] = test system: MPP-89 (Mesothelioma); test: as above
# Method in brief: as §1
# [36] = test system: SNU-16 (Gastric Carcinoma); test: as above
# Method in brief: as §1
# [37] = test system: KS-1 (Glioblastoma); test: as above
# Method in brief: as §1
# [38] = test system: LS-123 (Colorectal Carcinoma); test: as above
# Method in brief: as §1
# [39] = test system: GAMG (Glioblastoma); test: as above
# Method in brief: as §1
# [40] = test system: SW1710 (Bladder Carcinoma); test: as above
# Method in brief: as §1
# [41] = test system: LOXIMVI (Melanoma); test: as above
# Method in brief: as §1
# [42] = test system: CAL-72 (Osteosarcoma); test: as above
# Method in brief: as §1
# [43] = test system: BE-13 (T-Lymphoblastic Leukemia); test: as above
# Method in brief: as §1
# [44] = test system: SAS (Oral Cavity Carcinoma); test: as above
# Method in brief: as §1
# [45] = test system: SNU-449 (Hepatocellular Carcinoma); test: as above
# Method in brief: as §1
# [46] = test system: KYAE-1 (Esophageal Adenocarcinoma); test: as above
# Method in brief: as §1
compound,measurement,setting,value
"C[C@@H](Nc1cc(F)cc(F)c1)c1cc(C(=O)N(C)C)cc2c(=O)cc(N3CCOCC3)oc12 [AZD8186] + C1CN(CCC1(C(=O)N[C@@H](CCO)C2=CC=C(C=C2)Cl)N)C3=NC=NC4=C3C=CN4 [AZD5363] (first compound max 10 µM, 7x7, partner max 10 µM)",Bliss excess,[1],-0.0265
same,Bliss excess,[2],-0.0165
same,Bliss excess,[3],0.0539
same,Bliss excess,[4],-0.125
same,Bliss excess,[5],-0.0018
same,Bliss excess,[6],-0.0442
same,Bliss excess,[7],-0.0171
same,Bliss excess,[8],-0.0615
same,Bliss excess,[9],-0.0342
same,Bliss excess,[10],0.0084
same,Bliss excess,[11],-0.0214
same,Bliss excess,[12],-0.0635
same,Bliss excess,[13],-0.0549
same,Bliss excess,[14],-0.0233
same,Bliss excess,[15],-0.0327
same,Bliss excess,[16],-0.0849
same,Bliss excess,[17],-0.0408
same,Bliss excess,[18],-0.0495
same,Bliss excess,[19],-0.0293
same,Bliss excess,[20],-0.028
same,Bliss excess,[21],-0.0226
same,Bliss excess,[22],-0.0206
same,Bliss excess,[23],-0.0101
same,combination Emax,[24],0.579
same,combination Emax,[25],0.549
same,combination Emax,[26],0.559
same,combination Emax,[27],0.299
same,combination Emax,[28],0.9
same,combination Emax,[29],0.432
same,combination Emax,[30],0.413
same,combination Emax,[31],0.357
same,combination Emax,[32],0.224
same,combination Emax,[33],0.253
same,combination Emax,[34],0.246
same,combination Emax,[35],0.382
same,combination Emax,[36],0.22
same,combination Emax,[37],0.458
same,combination Emax,[38],0.408
same,combination Emax,[39],0.657
same,combination Emax,[40],0.495
same,combination Emax,[41],0.287
same,combination Emax,[42],0.29
same,combination Emax,[43],0.16
same,combination Emax,[44],0.364
same,combination Emax,[45],0.198
same,combination Emax,[46],0.154
